Data taken from patent US20240383856A1 (Zedira GmbH, priority 2021, published 2024).

How the values were obtained:
[1] = molecular target: T1, recombinant human transglutaminase 2 (Homo sapiens, UniProt P21980); experiment: Transglutaminase assay (DCC-assay): incorporation of dansylcadaverine into dimethylcasein; format: biochemical; conditions: recombinant human TG2 10 nM; dansylcadaverine incorporation into dimethylcasein; read-out: IC50 TG2
T1 construct: purchased Zedira T022
T1 sequence (P21980 1-687): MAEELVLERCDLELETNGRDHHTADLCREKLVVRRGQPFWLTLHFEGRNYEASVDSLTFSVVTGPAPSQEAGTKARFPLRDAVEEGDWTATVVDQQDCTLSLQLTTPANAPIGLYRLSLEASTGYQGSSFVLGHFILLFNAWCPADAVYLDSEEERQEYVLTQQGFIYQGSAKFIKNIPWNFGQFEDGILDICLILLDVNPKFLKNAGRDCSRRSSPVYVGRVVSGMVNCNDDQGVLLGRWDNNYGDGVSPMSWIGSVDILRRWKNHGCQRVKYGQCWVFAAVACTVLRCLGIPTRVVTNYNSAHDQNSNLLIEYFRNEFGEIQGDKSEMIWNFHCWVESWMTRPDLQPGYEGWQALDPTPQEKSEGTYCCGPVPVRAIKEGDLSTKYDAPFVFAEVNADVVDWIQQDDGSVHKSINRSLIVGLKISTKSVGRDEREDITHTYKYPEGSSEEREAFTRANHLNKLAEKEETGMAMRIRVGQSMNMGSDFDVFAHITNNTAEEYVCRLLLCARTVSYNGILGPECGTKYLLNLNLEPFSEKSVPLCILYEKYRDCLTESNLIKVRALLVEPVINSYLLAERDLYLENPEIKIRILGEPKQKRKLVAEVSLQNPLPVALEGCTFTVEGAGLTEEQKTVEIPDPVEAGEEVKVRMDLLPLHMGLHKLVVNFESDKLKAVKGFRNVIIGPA
Procedure, shortened: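 IC50 is the inhibitor level that blocks 50% of initial activity. Activity is the fluorescence slope (λex 330, λem 500 nm) between 20 and 30 min of a 37 °C run, relative to a 2% DMSO control. The enzyme is recombinant human tissue transglutaminase, 10 nM final, tested against a 1:2 inhibitor dilution series in a pH 8.0 mix with 10 mM CaCl2, 10 mM glutathione, 16.7 µM dansylcadaverine and 4 µM N,N-dimethylcasein.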

[2] = Caco-2 permeability assay (CacoReady kit); format: in vitro ADME; conditions: human, Caco-2, Caco-2 barrier, CacoReady kit; above 1×10^−6 cm/s classified as permeable
Procedure, shortened: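 Caco-2 monolayer barrier, commercial ready-to-use kit, manufacturer protocol. Read-out: Papp.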

[3] = logD by shake flask method (octanol / PBS pH 7.4, HPLC); format: physicochemical; conditions: octanol / PBS pH 7.4, shake flask
Procedure, shortened: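 LogD obtained by HPLC measurement of how the compound distributes between PBS (pH 7.4) and octanol in a shake-flask experiment.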

Row | Structure (SMILES) | IC50 [1] [nM] | Papp [2] [×10⁻⁶ cm/s] | logD [3]
1 | CNC(=O)C(=O)CC[C@H](NC(=O)c1cnn(C)c1)C(=O)Nc1cccn(CC(=O)NC2C3CC4CC(C3)CC2C4)c1=O (stereo partly drawn) [II-139, (S)-N1-(1-(2-(2-adamantylamino)-2-oxoethyl)-2-oxo-1,2-dihydropyridin-3-yl)-N6-methyl-2-(1-methyl-1H-pyrazole-4-carboxamido)-5-oxohexanediamide] | 400 to 2500 | < 1 | < 1
2 | CNC(=O)C(=O)CC[C@H](NC(=O)c1cc2c(F)c(F)ccc2[nH]1)C(=O)Nc1cccn(CC(=O)NC2C3CC4CC(C3)CC2C4)c1=O (stereo partly drawn) [II-10, (S)-2-(4,5-difluoro-1H-indole-2-carboxamido)-N1-(1-(2-(2-adamantylamino)-2-oxoethyl)-2-oxo-1,2-dihydropyridin-3-yl)-N6-methyl-5-oxohexanediamide] | < 40 | < 1 | 3 to 5
3 | CNC(=O)C(=O)CC[C@H](NC(=O)c1oc2ccccc2c1C)C(=O)Nc1cccn(CC(=O)NC23CCCC4CC(CCC42)C3)c1=O (stereo partly drawn) [II-103, (S)-N1-(1-(2-(4-homoisotwistane-3-amino)-2-oxoethyl)-2-oxo-1,2-dihydropyridin-3-yl)-N6-methyl-2-(3-methylbenzofuran-2-carboxamido)-5-oxohexanediamide] | 40 to 400 | 1 to 10 | 1 to 3
4 | CCC12CC3CC(C1)C(NC(=O)Cn1cccc(NC(=O)[C@H](CCC(=O)C(=O)NC)NC(=O)c4ccc5cnccc5n4)c1=O)C(C3)C2 (stereo partly drawn) [II-187, (S)-N1-(1-(2-(5-ethyladamantane-2-amino)-2-oxoethyl)-2-oxo-1,2-dihydropyridin-3-yl)-N6-methyl-2-(1,6-naphthyridine-2-carboxamido)-5-oxohexanediamide] | 400 to 2500 | 1 to 10 | 3 to 5
5 | CNC(=O)C(=O)CC[C@H](NC(=O)c1ccc(Br)s1)C(=O)Nc1cccn(CC(=O)NC2C3CC4CC(C3)CC2C4)c1=O (stereo partly drawn) [II-23, (S)-2-(5-bromothiophene-2-carboxamido)-N1-(1-(2-(2-adamantylamino)-2-oxoethyl)-2-oxo-1,2-dihydropyridin-3-yl)-N6-methyl-5-oxohexanediamide] | 40 to 400 | 1 to 10 | 3 to 5
6 | CNC(=O)C(=O)CC[C@H](NC(=O)c1ccnnc1)C(=O)Nc1cccn(CC(=O)NC2C3CC4CC(C3)CC2C4)c1=O (stereo partly drawn) [II-113, (S)-N1-(1-(2-(2-adamantylamino)-2-oxoethyl)-2-oxo-1,2-dihydropyridin-3-yl)-N6-methyl-5-oxo-2-(pyridazine-4-carboxamido)hexanediamide] | 40 to 400 | < 1 | < 1
7 | CNC(=O)C(=O)CC[C@H](NC(=O)c1nonc1N)C(=O)Nc1cccn(CC(=O)NC23CC(C2)C3)c1=O [II-189, (S)-2-(4-amino-1,2,5-oxadiazole-3-carboxamido)-N1-(1-(2-(bicyclo[1.1.1]pentan-1-ylamino)-2-oxoethyl)-2-oxo-1,2-dihydropyridin-3-yl)-N6-methyl-5-oxohexanediamide] | 400 to 2500 | < 1 | < 1
8 | CNC(=O)C(=O)CC[C@H](NC(=O)c1cnc(C(C)C)o1)C(=O)Nc1cccn(CC(=O)NC23CCC(C2)C3)c1=O [II-170, (S)-N1-(1-(2-(bicyclo[2.1.1]hexan-1-ylamino)-2-oxoethyl)-2-oxo-1,2-dihydropyridin-3-yl)-2-(2-isopropyloxazole-5-carboxamido)-N6-methyl-5-oxohexanediamide] | 40 to 400 | 1 to 10 | < 1
9 | CNC(=O)C(=O)CC[C@H](NC(=O)c1oc2ccccc2c1C)C(=O)Nc1cccn(CC(=O)NCC23CC4CC(CC(C4)C2)C3)c1=O [II-87, (S)-N1-(1-(2-(1-adamantylmethylamino)-2-oxoethyl)-2-oxo-1,2-dihydropyridin-3-yl)-N6-methyl-2-(3-methylbenzofuran-2-carboxamido)-5-oxohexanediamide] | 40 to 400 | 1 to 10 | 3 to 5
10 | CCc1nnsc1C(=O)N[C@@H](CCC(=O)C(=O)NC)C(=O)Nc1cccn(CC(=O)NC2C3CC4CC(C3)CC2C4)c1=O (stereo partly drawn) [II-204, (S)-2-(4-ethyl-1,2,3-thiadiazole-5-carboxamido)-N1-(1-(2-(2-adamantylamino)-2-oxoethyl)-2-oxo-1,2-dihydropyridin-3-yl)-N6-methyl-5-oxohexanediamide] | 40 to 400 | < 1 | 1 to 3
11 | Cc1c(C(=O)N[C@@H](CCC(=O)C(N)=O)C(=O)Nc2cccn(CC(=O)NC3C4CC5CC(C4)CC3C5)c2=O)oc2ccccc12 (stereo partly drawn) [II-118, (S)-N1-(1-(2-(2-adamantylamino)-2-oxoethyl)-2-oxo-1,2-dihydropyridin-3-yl)-2-(3-methylbenzofuran-2-carboxamido)-5-oxohexanediamide] | < 40 | 1 to 10 | 1 to 3
12 | CNC(=O)C(=O)CC[C@H](NC(=O)c1csc2ccccc12)C(=O)Nc1cccn(CC(=O)NC2C3CC4CC(C3)CC2C4)c1=O (stereo partly drawn) [II-137, (S)-2-(benzo[b]thiophene-3-carboxamido)-N1-(1-(2-(2-adamantylamino)-2-oxoethyl)-2-oxo-1,2-dihydropyridin-3-yl)-N6-methyl-5-oxohexanediamide] | 40 to 400 | 1 to 10 | 3 to 5
13 | CNC(=O)C(=O)CC[C@H](NC(=O)c1cc(C)oc1C)C(=O)Nc1cccn(CC(=O)NC2C3CC4CC(C3)CC2C4)c1=O (stereo partly drawn) [II-37, (S)-2-(2,5-dimethylfuran-3-carboxamido)-N1-(1-(2-(2-adamantylamino)-2-oxoethyl)-2-oxo-1,2-dihydropyridin-3-yl)-N6-methyl-5-oxohexanediamide] | 40 to 400 | 1 to 10 | 1 to 3
14 | CNC(=O)C(=O)CC[C@H](NC(=O)c1cccnn1)C(=O)Nc1cccn(CC(=O)NC2C3CC4CC(C3)CC2C4)c1=O (stereo partly drawn) [II-114, (S)-N1-(1-(2-(2-adamantylamino)-2-oxoethyl)-2-oxo-1,2-dihydropyridin-3-yl)-N6-methyl-5-oxo-2-(pyridazine-3-carboxamido)hexanediamide] | 40 to 400 | < 1 | < 1
15 | CNC(=O)C(=O)CC[C@H](NC(=O)c1sc(Cl)nc1Cl)C(=O)Nc1cccn(CC(=O)NC2C3CC4CC(C3)CC2C4)c1=O (stereo partly drawn) [II-17, (S)-2-(2,4-dichlorothiazole-5-carboxamido)-N1-(1-(2-(2-adamantylamino)-2-oxoethyl)-2-oxo-1,2-dihydropyridin-3-yl)-N6-methyl-5-oxohexanediamide] | 40 to 400 | 1 to 10 | 1 to 3
16 | CNC(=O)C(=O)CC[C@H](NC(=O)c1oc2ccccc2c1C)C(=O)Nc1cccn(CC23CC4CC(CC(O)(C4)C2)C3)c1=O [II-108, (2S)-N1-(1-((3-hydroxy-1-adamantyl)methyl)-2-oxo-1,2-dihydropyridin-3-yl)-N6-methyl-2-(3-methylbenzofuran-2-carboxamido)-5-oxohexanediamide] | 40 to 400 | < 1 | 1 to 3
17 | Cc1c(C(=O)N[C@@H](CCC(=O)C(N)=O)C(=O)Nc2cccn(CC(=O)N[C@@H]3C[C@H]4CC[C@@H]3C4)c2=O)oc2ccccc12 [II-147, (S)-N1-(1-(2-((1R,2R,4S)-bicyclo[2.2.1]heptan-2-ylamino)-2-oxoethyl)-2-oxo-1,2-dihydropyridin-3-yl)-2-(3-methylbenzofuran-2-carboxamido)-5-oxohexanediamide] | < 40 | 1 to 10 | < 1
18 | O=C(Cn1cccc(NC(=O)[C@H](CCC(=O)C(=O)NC2CCCC2)NC(=O)c2nc3ccccc3s2)c1=O)N[C@@H]1C[C@@H]2CC[C@H]1C2 [II-178, (S)-2-(benzo[d]thiazole-2-carboxamido)-N1-(1-(2-((1S,2R,4R)-bicyclo[2.2.1]heptan-2-ylamino)-2-oxoethyl)-2-oxo-1,2-dihydropyridin-3-yl)-N6-cyclopentyl-5-oxohexanediamide] | 40 to 400 | 1 to 10 | 3 to 5
19 | CNC(=O)C(=O)CC[C@H](NC(=O)[C@@H]1CCCNC1)C(=O)Nc1cccn(CC(=O)NC2C3CC4CC(C3)CC2C4)c1=O (stereo partly drawn) [II-59, (S)-N1-(1-(2-(2-adamantylamino)-2-oxoethyl)-2-oxo-1,2-dihydropyridin-3-yl)-N6-methyl-5-oxo-2-((R)-piperidine-3-carboxamido)hexanediamide] | 40 to 400 | < 1 | 1 to 3
